Results: PMC12812011 (Chemmedchem, 2025)
Entries after “also recorded” stand apart in the source; their conditions may differ.

Assays:
MCF-10A cells = experiment: AlamarBlue cell viability assay; conditions: concentrations up to 100 µM
salmon testes DNA = experiment: UV-thermal DNA denaturation with salmon testes DNA; conditions: compound to DNA base ratio 0.1, phosphate buffer pH 7
Description: UV thermal denaturation experiments
Thermal melting experiments were conducted with a Varian Cary 300 Bio spectrophotometer equipped
with a 6×6 multicell temperature-controlled block. Temperatures were monitored with a thermistor
inserted into a 1 cm quartz cuvette containing the same volume of water as in the sample cells. Absorbance
changes at 260 nm were monitored from a range of 30 °C to 90 °C with a heating rate of 1 °C min -1 and a
data collection rate of five points per °C. The salmon sperm DNA was purchased from Sigma Aldrich
(extinction coefficient ε260= 6600 M-1 cm-1). A quartz cell with a 1 cm path length was filled with a 1 mL
solution of DNA or DNA-compound complex.
were prepared in a phosphate buffer ([10 mM K2HPO4/KH2PO4], adjusted to pH 7) so that a compound to
DNA base ratio of 0.1 was obtained. The thermal melting temperatures of the duplex or duplex-compound
complex obtained from the first derivative of the melting curves are reported.

[1] = test system: particles pseudotyped with the glycoprotein of vesicular stomatitis virus (VSV-G); type: cell-based
[2] = test system: pseudotyped particles bearing the SARS-CoV-2 B.1 S protein; type: cell-based; conditions: TMPRSS2-independent (cathepsin L-dependent) entry
[3] = test system: particles pseudotyped with the glycoprotein of vesicular stomatitis virus (VSV-G); type: cell-based; remark: listed apart in the source
SARS-CoV-2 infection = conditions: cited from earlier work; for benefit to COVID-19 patients: clinical trials, oral (camostat), intravenous (nafamostat)
poly(dA•dT)2 = test system: poly(dA•dT)2; parameters: method as in PMID 18247550; conditions: DNA oligo rich in AT pairs; cited from earlier work
SARS-CoV-2 = test system: SARS-CoV-2; parameters: method as in PMID 32142651, PMID 33676899, PMID 33393462, PMID 32312781, PMID 35382133; conditions: cell culture; cited from earlier work
[4] = test system: pseudotyped particles bearing the SARS-CoV-2 B.1 S protein; type: cell-based; conditions: TMPRSS2-dependent entry

Question: With N=C(N)Nc1ccc(NC(=S)Nc2ccccc2)cc1 [Compound 2] as the compound, how does the IC50 (MCF-10A cells) read?
Answer: could not be found

Question: What about the “cytotoxicity (cell death)” value (MCF-10A cells; 72 hours) of the same compound?
Answer: no cytotoxicity; also recorded: no significant cell‐death was detected

Question: What about the ΔTm (salmon testes DNA) of the same compound?
Answer: 0.65 °C

Question: Which results are given for CCN(CC)CCCC(C)Nc1ccnc2cc(Cl)ccc12 (centres unmarked) [chloroquine]?
Answer: VSV-G-driven entry into Calu-3 cells [1]: reverse observation; SARS-CoV-2 S protein-driven entry into Vero76 cells [2]: reduced by the highest concentration; VSV-G-driven entry into Vero76 cells [3]: reduced by the highest concentration

Question: For N=C(N)Nc1ccc(NC(=S)Nc2ccccn2)cc1 [Compound 20], which ΔTm (salmon testes DNA) is on record?
Answer: −0.25 °C

Question: For aprotinin, which “clinical benefit in COVID-19 patients” value (SARS-CoV-2 infection; aerosolized) is on record?
Answer: of clinical benefit

Question: What about the “tolerability in COVID-19 patients” value (SARS-CoV-2 infection; aerosolized) of the same compound?
Answer: well tolerated

Question: For N=C(N)Nc1ccc(NC(=S)Nc2ccc(NC(=N)N)cc2)cc1 [hit‐compound], which ΔTm (poly(dA•dT)2) is on record?
Answer: 23.0 °C

Question: Which “VSV-G-driven entry into Calu-3 cells” value [1] does the source give for CN(C)C(=O)COC(=O)Cc1ccc(OC(=O)c2ccc(NC(=N)N)cc2)cc1 [Camostat, camostat] here?
Answer: reverse observation

Question: And the “benefit to COVID-19 patients” value (SARS-CoV-2 infection)?
Answer: little if any benefit

Question: What about the “inhibition of SARS-CoV-2 infection” value (SARS-CoV-2) of the same compound?
Answer: inhibit SARS‐CoV‐2 infection with high efficiency

Question: What about the “SARS-CoV-2 S protein-driven entry into Vero76 cells” value [2] of the same compound?
Answer: not inhibited

Question: And the “SARS-CoV-2 S protein-mediated entry into Calu-3 cells” value [4]?
Answer: inhibited

Question: And the “VSV-G-driven entry into Vero76 cells” value [3]?
Answer: not inhibited

Question: For N=C(N)c1ccc2cc(OC(=O)c3ccc(N=C(N)N)cc3)ccc2c1 [Nafamostat, nafamostat], which “benefit to COVID-19 patients” value (SARS-CoV-2 infection) is on record?
Answer: little if any benefit
